Where “and” joins values, the source holds several entries; their conditions need not be identical. Equal entries are not always repeated. Inconclusive results and toxic doses are left out. Cut-off read from the data, not from the text of the source: active = T/C of 150% or more; inactive = T/C below 125%.
System: L1210 leukemia ip in BDF1 mice, survival T/C
Assay: NCI In Vivo Anticancer Drug Screen. Data for tumor model L1210 Leukemia (intraperitoneal) in B6D2F1 (BDF1) mice
Settings: endpoint: mean survival time, higher = longer survival
Outline: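 Transplantable tumor model; survival measured in treated vs vehicle control mice. Value = treated/control.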

[1] = dose: 100.0 mg/kg/injection, schedule: Q01DX009 (ip), vehicle: Klucel (hydroxypropylcellulose) (HPC)
[2] = dose: 100.0 mg/kg/injection, schedule: Q04DX003 (ip), vehicle: Klucel (hydroxypropylcellulose) (HPC)
[3] = dose: 200.0 mg/kg/injection, schedule: Q01DX009 (ip), vehicle: Klucel (hydroxypropylcellulose) (HPC)
[4] = dose: 200.0 mg/kg/injection, schedule: Q04DX003 (ip), vehicle: Klucel (hydroxypropylcellulose) (HPC)
[5] = dose: 400.0 mg/kg/injection, schedule: Q01DX009 (ip), vehicle: Klucel (hydroxypropylcellulose) (HPC)
[6] = dose: 400.0 mg/kg/injection, schedule: Q04DX003 (ip), vehicle: Klucel (hydroxypropylcellulose) (HPC)
[7] = dose: 100.0 mg/kg/injection, schedule: Q01DX009 (ip), vehicle: saline with Tween-80
[8] = dose: 100.0 mg/kg/injection, schedule: Q04DX003 (ip), vehicle: saline with Tween-80
[9] = dose: 200.0 mg/kg/injection, schedule: Q01DX009 (ip), vehicle: saline with Tween-80
[10] = dose: 200.0 mg/kg/injection, schedule: Q04DX003 (ip), vehicle: saline with Tween-80
[11] = dose: 400.0 mg/kg/injection, schedule: Q01DX009 (ip), vehicle: saline with Tween-80
[12] = dose: 100.0 mg/kg/injection, schedule: Q01DX001 (ip), vehicle: carboxymethylcellulose (CMC)
[13] = dose: 200.0 mg/kg/injection, schedule: Q01DX001 (ip), vehicle: carboxymethylcellulose (CMC)
[14] = dose: 400.0 mg/kg/injection, schedule: Q01DX001 (ip), vehicle: carboxymethylcellulose (CMC)
[15] = dose: 100.0 mg/kg/injection, schedule: Q01DX001 (ip), vehicle: Klucel (hydroxypropylcellulose) (HPC)
[16] = dose: 200.0 mg/kg/injection, schedule: Q01DX001 (ip), vehicle: Klucel (hydroxypropylcellulose) (HPC)
[17] = dose: 400.0 mg/kg/injection, schedule: Q01DX001 (ip), vehicle: Klucel (hydroxypropylcellulose) (HPC)
[18] = dose: 100.0 mg/kg/injection, schedule: Q01DX001 (ip), vehicle: saline
[19] = dose: 200.0 mg/kg/injection, schedule: Q01DX001 (ip), vehicle: saline
[20] = dose: 400.0 mg/kg/injection, schedule: Q01DX001 (ip), vehicle: saline

Measured: T/C

c1ccc(COc2ccc(Nc3ccccc3)cc2)cc1
inactive: [1] 98 % of control | [2] 106 % of control | [3] 100 % of control | [4] 103 % of control | [5] 102 % of control | [6] 94 % of control

CCOP(=O)(OCC)C([O][Sb]([O]CC(C)Cl)[O]CC(C)Cl)c1ccc(OC)cc1 (stereo unspecified)
inactive: dose: 25.0 mg/kg/injection, schedule: Q04DX003 (ip), vehicle: alcohol 101 % of control | dose: 50.0 mg/kg/injection, schedule: Q04DX003 (ip), vehicle: alcohol 97 % of control | dose: 100.0 mg/kg/injection, schedule: Q04DX003 (ip), vehicle: alcohol 103 % of control and 113 % of control

Cc1[nH]c2ccc([N+](=O)[O-])cc2c(=O)c1[N+](=O)[O-] (tested in a mixture with another compound)
inactive: dose: 50.0 mg/kg/injection, schedule: Q01DX009 (ip), vehicle: Klucel (hydroxypropylcellulose) (HPC) 94 % of control | [1] 87 % of control | [3] 105 % of control

COc1ccc(N(C=O)N=O)cc1
inactive: dose: 75.0 mg/kg/injection, schedule: Q01DX001 (ip), vehicle: other 90 % of control | dose: 150.0 mg/kg/injection, schedule: Q01DX001 (ip), vehicle: other 93 % of control

CCNC(=O)C(=O)c1ccccc1NC(C)=O
inactive: [2] 99 % of control | [4] 100 % of control | [6] 96 % of control

CCC(C(O)c1cccs1)C(O)(C(F)(F)F)C(F)(F)F (stereo unspecified)
inactive: [7] 95 % of control | [8] 95 % of control | [9] 116 % of control | [10] 95 % of control | [11] 97 % of control | dose: 400.0 mg/kg/injection, schedule: Q04DX003 (ip), vehicle: saline with Tween-80 93 % of control

COC(=O)NC1c2ccccc2CCC1I (stereo unspecified)
inactive: dose: 50.0 mg/kg/injection, schedule: Q01DX009 (ip), vehicle: saline with Tween-80 94 % of control | [7] 90 % of control | [9] 92 % of control

CCCC[Si](C)(C)C
inactive: [12] 103 % of control | [13] 95 % of control | [14] 103 % of control

CCCCCCCCCCCCCCCCOc1ccc(C(C)(C)C)cc1
inactive: [15] 93 % of control | [16] 93 % of control | [17] 93 % of control

N#CCC(=O)N1CCCC1
inactive: dose: 50.0 mg/kg/injection, schedule: Q01DX001 (ip), vehicle: saline 95 % of control | [18] 104 % of control | [19] 98 % of control | [20] 95 % of control

Cc1ccc(NC(=O)Oc2ccc(C(C)(C)C)cc2)cc1NC(=O)Oc1ccc(C(C)(C)C)cc1
inactive: [1] 97 % of control | [3] 105 % of control | [5] 100 % of control

CSc1ccc(/C=N/NC(N)=S)cc1
inactive: [1] 103 % of control | [2] 106 % of control | [3] 92 % of control | [4] 106 % of control | [6] 108 % of control

COC(=O)C1=C(C(=O)OC)C(C(=O)OC)N2C=CC=CC2=C1C(=O)OC (stereo unspecified)
inactive: dose: 50.0 mg/kg/injection, schedule: Q01DX001 (ip), vehicle: carboxymethylcellulose (CMC) 94 % of control | [12] 89 % of control | [13] 94 % of control

CCOc1ccccc1/C=C1\C=C(CC)SC1=O
inactive: dose: 100.0 mg/kg/injection, schedule: Q01DX001 (ip), vehicle: saline with Tween-80 91 % of control | dose: 200.0 mg/kg/injection, schedule: Q01DX001 (ip), vehicle: saline with Tween-80 94 % of control | dose: 400.0 mg/kg/injection, schedule: Q01DX001 (ip), vehicle: saline with Tween-80 91 % of control

NC1=NC(c2ccccc2)N(c2ccccc2Cl)C(N)=N1 (stereo unspecified)
inactive: dose: 75.0 mg/kg/injection, schedule: Q01DX001 (ip), vehicle: Klucel (hydroxypropylcellulose) (HPC) 97 % of control | dose: 150.0 mg/kg/injection, schedule: Q01DX001 (ip), vehicle: Klucel (hydroxypropylcellulose) (HPC) 94 % of control

CNC(=O)c1ccccc1C(O)(c1ccccc1)c1ccccc1
inactive: [1] 95 % of control | [2] 94 % of control | [3] 98 % of control | [4] 97 % of control | [5] 101 % of control | [6] 90 % of control

Cc1ccc(C(=O)C(Br)C(Br)c2ccc(C)cc2)cc1 (stereo unspecified)
inactive: [15] 105 % of control | [1] 96 % of control | [16] 99 % of control | [3] 91 % of control | [17] 94 % of control | [5] 95 % of control

NNC(=O)CNc1ccccc1
inactive: dose: 50.0 mg/kg/injection, schedule: Q01DX001 (ip), vehicle: Klucel (hydroxypropylcellulose) (HPC) 100 % of control | [15] 110 % of control | [16] 117 % of control

CS(=O)Cc1cccc2ccccc12 (stereo unspecified)
inactive: dose: 50.0 mg/kg/injection, schedule: Q04DX003 (ip), vehicle: Klucel (hydroxypropylcellulose) (HPC) 117 % of control | [15] 98 % of control | [2] 104 % of control | [16] 116 % of control | [4] 96 % of control

Cc1ccc([N+](=O)[O-])cc1NC(=O)COc1cc(Cl)c(Cl)cc1Cl
inactive: [7] 89 % of control | [9] 94 % of control | [11] 98 % of control

O=C(O)c1cccc(CCl)c1
inactive: dose: 100.0 mg/kg/injection, schedule: Q04DX002 (ip), vehicle: saline with Tween-80 95 % of control

Cc1nnc(S(=O)(=O)c2ccc(N=Nc3c(N)nc(N)nc3N)cc2)s1
inactive: [12] 92 % of control | [13] 97 % of control | [14] 94 % of control

Nc1ccc(S(=O)(=O)C(Cl)c2ccccc2)cc1 (stereo unspecified)
inactive: [18] 104 % of control | [19] 102 % of control | [20] 104 % of control

CCCCCCCCCCCCCCCCCC[N+](C)=C1SCCS1
inactive: dose: 1.56 mg/kg/injection, schedule: Q01DX009 (ip), vehicle: Klucel (hydroxypropylcellulose) (HPC) 94 % of control | dose: 3.13 mg/kg/injection, schedule: Q01DX009 (ip), vehicle: Klucel (hydroxypropylcellulose) (HPC) 105 % of control | dose: 6.25 mg/kg/injection, schedule: Q01DX009 (ip), vehicle: Klucel (hydroxypropylcellulose) (HPC) 105 % of control

CS(=O)(=O)Oc1ccc2ccccc2c1[N+](=O)[O-]
inactive: [12] 98 % of control | [13] 98 % of control | [14] 98 % of control

CC(C)OC(=O)Nc1ccc(Cl)cn1
inactive: [2] 103 % of control | [4] 101 % of control | [6] 95 % of control

COC(=O)c1cccc(C)c1NC(=O)NCCCl
inactive: [2] 96 % of control | [4] 96 % of control | [6] 94 % of control

O=C(Nc1ccc([N+](=O)[O-])cc1O)c1ccccc1
inactive: [8] 92 % of control | [10] 92 % of control

CSc1nc(NN(C)C)c2[nH]c(C)nc2n1
inactive: [18] 92 % of control | [19] 97 % of control

CC(C)CCCC(C)C1CCC2C3CC=C4CC(OP(=O)(N5CC5)N5CC5)CCC4(C)C3CCC12C (stereo unspecified)
inactive: dose: 50.0 mg/kg/injection, schedule: Q01DX001 (sc), vehicle: steriod suspending solution 102 % of control | dose: 100.0 mg/kg/injection, schedule: Q01DX001 (sc), vehicle: steriod suspending solution 96 % of control | dose: 200.0 mg/kg/injection, schedule: Q01DX001 (sc), vehicle: steriod suspending solution 94 % of control | dose: 400.0 mg/kg/injection, schedule: Q01DX001 (sc), vehicle: steriod suspending solution 89 % of control

CC(=O)N1C(CO)C(O)C(O)C1n1cnc2c(N)ncnc21 (stereo unspecified)
inactive: [18] 106 % of control | [19] 96 % of control | [20] 96 % of control

O=C(Nc1ccc(S(=O)(=O)F)cc1[N+](=O)[O-])c1ccc2ccccc2c1O
inactive: [1] 104 % of control | [3] 96 % of control | [5] 93 % of control

NC(=O)N/N=C(\CF)C(=O)O
inactive: dose: 6.0 mg/kg/injection, schedule: Q01DX009 (ip), vehicle: Klucel (hydroxypropylcellulose) (HPC) 98 % of control | dose: 12.0 mg/kg/injection, schedule: Q01DX009 (ip), vehicle: Klucel (hydroxypropylcellulose) (HPC) 110 % of control | dose: 24.0 mg/kg/injection, schedule: Q01DX009 (ip), vehicle: Klucel (hydroxypropylcellulose) (HPC) 101 % of control | dose: 48.0 mg/kg/injection, schedule: Q01DX009 (ip), vehicle: Klucel (hydroxypropylcellulose) (HPC) 102 % of control

C=C(C)C[N+]1(CC)CCN=C1CCCCCCCCCCCCCCCCC (stereo unspecified)
inactive: dose: 0.31 mg/kg/injection, schedule: Q01DX Z (ip), vehicle: saline 100 % of control | dose: 0.47 mg/kg/injection, schedule: Q01DX Z (ip), vehicle: saline 96 % of control | dose: 0.7 mg/kg/injection, schedule: Q01DX Z (ip), vehicle: saline 102 % of control | dose: 1.05 mg/kg/injection, schedule: Q01DX Z (ip), vehicle: saline 96 % of control

— PubChem BioAssay AID248 (DTP/NCI, 2004)
